The source of these data is US9815819B2, “Complement pathway modulators and uses thereof” (priority 2012, dated 2017).

Molecules are shown by their SMILES.

This test deals with Recombinant human factor D (Homo sapiens (Human), UniProt P00746). Briefly: Human Complement Factor D Assay: Method 1. The test is classed as biochemical. Particulars: Factor D inhibition, Method 1: 10 nM factor D, 1 hour incubation with compound at room temperature, substrate Z-Lys-thiobenzyl, fluorescence readout; read-out: IC50.
Recombinant human factor D, sequence (P00746 26-253): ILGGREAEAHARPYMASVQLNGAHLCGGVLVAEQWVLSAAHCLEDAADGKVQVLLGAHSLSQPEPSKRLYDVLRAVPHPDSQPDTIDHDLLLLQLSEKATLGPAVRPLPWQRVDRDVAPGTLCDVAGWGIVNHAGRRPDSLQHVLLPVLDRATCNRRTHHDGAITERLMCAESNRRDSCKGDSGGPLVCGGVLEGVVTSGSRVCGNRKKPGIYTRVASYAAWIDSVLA
Method: Recombinant human factor D (expressed in E. coli and purified using standard methods) at 10 nM concentration is incubated with test compound at various concentrations for 1 hour at room temperature in 0.1 M Hepes buffer, pH 7.5, containing 1 mM MgCl2, 1 M NaCl and 0.05% CHAPS. […] IC50 values are calculated from percentage of inhibition of complement factor D-activity as a function of test compound concentration.
Consider `NC(=O)c1nn(CC(=O)N2[C@@H]3C[C@@H]3C[C@H]2C(=O)N[C@@H]2C[C@@]2(F)c2ccccc2)c2cc(F)c(F)cc12` [Example 25, 5,6-Difluoro-1-{2-[(1R,3S,5R)-3-((1R,2R)-2-fluoro-2-phenyl-cyclopropylcarbamoyl)-2-aza-bicyclo[3.1.0]hex-2-yl]-2-oxo-ethyl}-1H-indazole-3-carboxylic acid amide], for which the IC50 was found to be 110 nM. Turning to `NC(=O)c1nn(CC(=O)N2[C@@H]3C[C@@H]3C[C@H]2C(=O)N[C@@H]2C[C@@]2(F)c2ccccc2)c2ccc(F)cc12` [Example 26, 5-Fluoro-1-{2-[(1R,3S,5R)-3-((1R,2R)-2-fluoro-2-phenyl-cyclopropylcarbamoyl)-2-aza-bicyclo[3.1.0]hex-2-yl]-2-oxo-ethyl}-1H-indazole-3-carboxylic acid amide], the IC50 was 60 nM. As to `CC(=O)c1nn(CC(=O)N2[C@H](C(=O)N[C@@H]3C[C@H]3c3ccccc3)C[C@@]3(CO)C[C@@H]23)c2ncccc12` [Example 28, (1R,3S,5S)-2-[2-(3-Acetyl-pyrazolo[3,4-b]pyridin-1-yl)-acetyl]-5-hydroxymethyl-2-aza-bicyclo[3.1.0]hexane-3-carboxylic acid((1R,2S)-2-phenyl-cyclopropyl)-amide], the IC50 was determined as 172 nM. The result for `CC(=O)c1nn(CC(=O)N2[C@H](C(=O)N[C@@H]3C[C@H]3c3ccccc3)C[C@@]3(CO)C[C@@H]23)c2cnccc12` [Example 29, (1R,3S,5S)-2-[2-(3-Acetyl-pyrazolo[3,4-c]pyridin-1-yl)-acetyl]-5-hydroxymethyl-2-aza-bicyclo[3.1.0]hexane-3-carboxylic acid((1R,2S)-2-phenyl-cyclopropyl)-amide] reads 119 nM; that for `NC(=O)c1nn(CC(=O)N2[C@H](C(=O)N[C@@H]3C[C@H]3c3ccccc3Cl)C[C@@]3(CO)C[C@@H]23)c2ccccc12` [Example 30, 1-(2-{(1R,3S,5S)-3-[(1R,2S)-2-(2-Chloro-phenyl)-cyclopropylcarbamoyl]-5-hydroxymethyl-2-aza-bicyclo[3.1.0]hex-2-yl}-2-oxo-ethyl)-1H-indazole-3-carboxylic acid amide], 22 nM; that for `CC(=O)c1nn(CC(=O)N2[C@H](C(=O)N[C@@H]3C[C@H]3c3ccccc3Cl)C[C@@]3(CO)C[C@@H]23)c2cnccc12` [Example 31, (1R,3S,5S)-2-[2-(3-Acetyl-pyrazolo[3,4-c]pyridin-1-yl)-acetyl]-5-hydroxymethyl-2-aza-bicyclo[3.1.0]hexane-3-carboxylic acid[(1R,2S)-2-(2-chloro-phenyl)-cyclopropyl]-amide], 37 nM. Consider `CC(=O)c1nn(CC(=O)N2[C@@H]3C[C@@H]3C[C@H]2C(=O)NC2CC2c2ccc(OC(F)F)cc2)c2cnccc12` (stereo partly drawn) [Example 32, (1R,3S,5R)-2-[2-(3-Acetyl-pyrazolo[3,4-c]pyridin-1-yl)-acetyl]-2-aza-bicyclo[3.1.0]hexane-3-carboxylic acid[2-(4-difluoromethoxy-phenyl)-cyclopropyl]-amide], for which the IC50 was 326 nM. Take `CC(=O)c1nn(CC(=O)N2[C@@H]3C[C@@H]3C[C@H]2C(=O)NC2CC2c2cccc(C(F)(F)F)c2)c2cnccc12` (stereo partly drawn) [Example 33, (1R,3S,5R)-2-[2-(3-Acetyl-pyrazolo[3,4-c]pyridin-1-yl)-acetyl]-2-aza-bicyclo[3.1.0] hexane-3-carboxylic acid [2-(3-trifluoromethyl-phenyl)-cyclopropyl]-amide]: the IC50 was 550 nM. The figure for `CC(=O)c1nn(CC(=O)N2[C@@H]3C[C@@H]3C[C@H]2C(=O)NC2CC2c2ccc(C)c(C)c2)c2cnccc12` (stereo partly drawn) [Example 34, (1R,3S,5R)-2-[2-(3-Acetyl-pyrazolo[3,4-c]pyridin-1-yl)-acetyl]-2-aza-bicyclo[3.1.0] hexane-3-carboxylic acid [2-(3,4-dimethyl-phenyl)-cyclopropyl]-amide] is 112 nM. As for `CC(=O)c1nn(CC(=O)N2[C@@H]3C[C@@H]3C[C@H]2C(=O)NC2CC(c3ccccc3)C2)c2ncccc12` (stereo partly drawn) [Example 35, (1R,3S,5R)-2-[2-(3-Acetyl-pyrazolo[3,4-b]pyridin-1-yl)-acetyl]-2-aza-bicyclo[3.1.0] hexane-3-carboxylic acid (3-phenyl-cyclobutyl)-amide], the IC50 amounted to 902 nM. The result for `CC(=O)c1nn(CC(=O)N2[C@@H]3C[C@@H]3C[C@H]2C(=O)NC2CC(c3ccccc3F)C2)c2ncccc12` (stereo partly drawn) [Example 36, (1R,3S,5R)-2-[2-(3-Acetyl-pyrazolo[3,4-b]pyridin-1-yl)-acetyl]-2-aza-bicyclo[3.1.0] hexane-3-carboxylic acid [3-(2-fluoro-phenyl)-cyclobutyl]-amide] reads 466 nM; that for `CC(=O)c1nn(CC(=O)N2[C@@H]3C[C@@H]3C[C@H]2C(=O)NC2CCC(c3ccccc3)CC2)c2cnccc12` (stereo partly drawn) [Example 37, (1R,3S,5R)-2-[2-(3-Acetyl-pyrazolo[3,4-c]pyridin-1-yl)-acetyl]-2-aza-bicyclo[3.1.0] hexane-3-carboxylic acid (4-phenyl-cyclohexyl)-amide], 1060 nM. `NC(=O)c1nn(CC(=O)N2[C@@H]3C[C@@H]3C[C@H]2C(=O)N[C@H]2C[C@]2(F)c2ccccc2)c2ccccc12` [Example 38, 1-{2-[(1R,3S,5R)-3-((1S,2S)-2-fluoro-2-phenyl-cyclopropylcarbamoyl)-2-aza-bicyclo[3.1.0]hex-2-yl]-2-oxo-ethyl}-1H-indazole-3-carboxylic acid amide]: the IC50 turned out to be 635 nM.

Turning to `NC(=O)c1nn(CC(=O)N2[C@@H]3C[C@@H]3C[C@H]2C(=O)N[C@@H]2C[C@@]2(F)c2ccccc2)c2ccccc12` [Example 39, 1-{2-[(1R,3S,5R)-3-((1R,2R)-2-fluoro-2-phenyl-cyclopropylcarbamoyl)-2-aza-bicyclo[3.1.0]hex-2-yl]-2-oxo-ethyl}-1H-indazole-3-carboxylic acid amide], the IC50 was 48 nM. The result for `NC(=O)c1nn(CC(=O)N2C[C@H](F)C[C@H]2C(=O)N[C@@H]2C[C@H]2c2ccccc2F)c2cnccc12` [Example 40, 1-(2-{(2S,4R)-4-Fluoro-2-[(1R,2S)-2-(2-fluoro-phenyl)-cyclopropylcarbamoyl]-pyrrolidin-1-yl}-2-oxo-ethyl)-1H-pyrazolo[3,4-c]pyridine-3-carboxylic acid amide] reads 142 nM; that for `NC(=O)c1nn(CC(=O)N2C[C@H](F)C[C@H]2C(=O)N[C@H]2C[C@@H]2c2ccccc2F)c2cnccc12` [Example 41, 1-(2-{(2S,4R)-4-Fluoro-2-[(1S,2R)-2-(2-fluoro-phenyl)-cyclopropylcarbamoyl]-pyrrolidin-1-yl}-2-oxo-ethyl)-1H-pyrazolo[3,4-c]pyridine-3-carboxylic acid amide], 1190 nM; that for `NC(=O)c1nn(CC(=O)N2[C@@H]3C[C@@H]3C[C@H]2C(=O)N[C@H]2C[C@]2(F)c2ccccc2)c2cnccc12` [Example 42, 1-{2-[(1R,3S,5R)-3-((1S,2S)-2-Fluoro-2-phenyl-cyclopropylcarbamoyl)-2-aza-bicyclo[3.1.0]hex-2-yl]-2-oxo-ethyl}-1H-pyrazolo[3,4-c]pyridine-3-carboxylic acid amide], 3650 nM. The figure for `NC(=O)c1nn(CC(=O)N2[C@@H]3C[C@@H]3C[C@H]2C(=O)N[C@@H]2C[C@@]2(F)c2ccccc2)c2cnccc12` [Example 43, 1-{2-[(1R,3S,5R)-3-((1R,2R)-2-Fluoro-2-phenyl-cyclopropylcarbamoyl)-2-aza-bicyclo[3.1.0]hex-2-yl]-2-oxo-ethyl}-1H-pyrazolo[3,4-c]pyridine-3-carboxylic acid amide] is 214 nM. Take `CC(=O)c1nn(CC(=O)N2[C@@H]3C[C@@H]3C[C@H]2C(=O)N[C@@H]2C[C@@]2(F)c2ccccc2)c2ncccc12` [Example 44, (1R,3S,5R)-2-[2-(3-Acetyl-pyrazolo[3,4-b]pyridin-1-yl)-acetyl]-2-aza-bicyclo[3.1.0] hexane-3-carboxylic acid ((1R,2R)-2-fluoro-2-phenyl-cyclopropyl)-amide]: the IC50 was determined as 66 nM. Regarding `CC(=O)c1nn(CC(=O)N2[C@@H]3C[C@@H]3C[C@H]2C(=O)N[C@H]2C[C@]2(F)c2ccccc2)c2ncccc12` [Example 45, (1R,3S,5R)-2-[2-(3-Acetyl-pyrazolo[3,4-b]pyridin-1-yl)-acetyl]-2-aza-bicyclo[3.1.0] hexane-3-carboxylic acid ((1S,2S)-2-fluoro-2-phenyl-cyclopropyl)-amide], the IC50 is 10400 nM. Regarding `CC(=O)c1nn(CC(=O)N2[C@@H]3C[C@@H]3C[C@H]2C(=O)N[C@@H]2C[C@@]2(F)c2ccccc2)c2cnccc12` [Example 46, (1R,3S,5R)-2-[2-(3-Acetyl-pyrazolo[3,4-c]pyridin-1-yl)-acetyl]-2-aza-bicyclo[3.1.0] hexane-3-carboxylic acid ((1R,2R)-2-fluoro-2-phenyl-cyclopropyl)-amide], the IC50 was 32 nM.

In the case of `CC(=O)c1nn(CC(=O)N2[C@@H]3C[C@@H]3C[C@H]2C(=O)N[C@H]2C[C@]2(F)c2ccccc2)c2cnccc12` [Example 47, (1R,3S,5R)-2-[2-(3-Acetyl-pyrazolo[3,4-c]pyridin-1-yl)-acetyl]-2-aza-bicyclo[3.1.0] hexane-3-carboxylic acid ((1S,2S)-2-fluoro-2-phenyl-cyclopropyl)-amide], the half-maximal inhibitory concentration (IC50) was found to be 991 nM. As for `Cc1cc2c(C(N)=O)nn(CC(=O)N3[C@@H]4C[C@@H]4C[C@H]3C(=O)N[C@@H]3C[C@@]3(F)c3ccccc3)c2cn1` [Example 48, 1-{2-[(1R,3S,5R)-3-((1R,2R)-2-Fluoro-2-phenyl-cyclopropylcarbamoyl)-2-aza-bicyclo[3.1.0]hex-2-yl]-2-oxo-ethyl}-5-methyl-1H-pyrazolo[3,4-c]pyridine-3-carboxylic acid amide], the IC50 stood at 30 nM. With `Cc1cc2c(C(N)=O)nn(CC(=O)N3[C@@H]4C[C@@H]4C[C@H]3C(=O)N[C@H]3C[C@]3(F)c3ccccc3)c2cn1` [Example 49, 1-{2-[(1R,3S,5R)-3-((1S,2S)-2-Fluoro-2-phenyl-cyclopropylcarbamoyl)-2-aza-bicyclo[3.1.0]hex-2-yl]-2-oxo-ethyl}-5-methyl-1H-pyrazolo[3,4-c]pyridine-3-carboxylic acid amide], the IC50 stood at 1190 nM.

The term IC50 denotes the concentration that gives 50% inhibition.
